Measured values published in patent publication US20090317452A1, “Transdermal patch” (Sekisui Chemical Co. td., priority 2006, published 2009).

Legend:
Format in all cases: physicochemical
[1] = Solvency of the active substance in monomers (visual inspection); design: key: Excellent: The active substance was not found to have been precipitated in the solution of active substance both immediately after the preparation and after the preservation for 7 days.; Good: The active substance was found to have been precipitated in the solution of active substance immediately after the preparation, but the active substance was not found to have been precipitated in the solution of active substance after the preservation for 7 days.; Poor: The active substance was found to have been precipitated in the solution of active substance both immediately after the preparation and after the preservation for 7 days; settings: 25° C., 7 days
[2] = Residual rate of the active substance in monomer solution (HPLC); settings: for Residual Rate (% by weight) after 7 Days: 25° C.
[3] = Solvency of DMAE in alcohol/additive; settings: 25° C.
Procedure: When a crystal of DMAE was precipitated […], and when a crystal of DMAE was not precipitated, the solvency was evaluated to be “poor”.

[4] = Solubility of DMAE at 25° C. in alcohol/additive
Excerpt: When the content of the saturated aliphatic monohydric alcohol is small in the plaster layer described above, the solvency and diffusibility of the DMAEs in the plaster layer decrease, and the transdermal absorbency of the DMAEs becomes insufficient. When the content of the saturated aliphatic monohydric alcohol is large in the plaster layer, the acrylic adhesive in the plaster layer becomes excessively plasticized, leading to an adhesive transfer when the transdermal patch is removed away from the skin. Therefore, the content of the saturated aliphatic monohydric alcohol in the plaster layer is limited to 1 to 30% by weight, and preferably 5 to 30%.
An excess amount of DMAEs is added to the saturated aliphatic monohydric alcohol, a weight W0 (g) of the alcohol being measured in advance; a solution temperature is set at 50° C. to keep the warmth for one hour or more than one hour; and then a shaking operation is continued in a water bath of 25° C. for 10 minutes by means of supersonic waves to prepare a DMAEs saturated solution. Next, the DMAEs saturated solution, after being arranged to stand still for 24 hours at 25° C., is centrifuged at a speed of 3000 r.p.m., and a certain amount of clear supernatant solution of the DMAEs saturated solution is collected. Then, such collected clear supernatant solution is subjected to HPLC determination to determine a weight W1 (g) of the DMAEs dissolved in the DMAEs saturated solution, and solubility of the DMAEs with respect to the saturated aliphatic monohydric alcohol is figured out by using the following equation (1).
Solubility of DMAEs (g)=(W1/W0)×100 Equation (1)

[5] = 3 parts active substance in 100 parts 1-Vinyl-2-Pyrrolidone
[6] = 3 parts active substance in 100 parts 2-Ethylhexyl Acrylate
[7] = 3 parts active substance in 100 parts 2-Ethylhexyl Methacrylate
[8] = 3 parts active substance in 100 parts Acrylic Acid
[9] = 3 parts active substance in 100 parts Butyl Acrylate
[10] = 3 parts active substance in 100 parts Butyl Methacrylate
[11] = 3 parts active substance in 100 parts Dodecyl Methacrylate
[12] = 3 parts active substance in 100 parts Ethyl Acrylate
[13] = in Butyl Acrylate, N.D. = equal to or less than the HPLC detection limit
[14] = in Ethyl Acrylate, N.D. = equal to or less than the HPLC detection limit

## COc1ccc(OC)c(C(O)CN)c1 (stereo not shown) [DMAE, 2-amino-1-(2′,5′-dimethoxyphenyl)ethanol]
[1]; [5]
  Solvency of the active substance: Poor
[1]; [6]
  Solvency of the active substance: Poor
[1]; [7]
  Solvency of the active substance: Poor
[1]; [8]
  Solvency of the active substance: Excellent
[1]; [9]
  Solvency of the active substance: Good
[1]; [10]
  Solvency of the active substance: Poor
[1]; [11]
  Solvency of the active substance: Poor
[1]; [12]
  Solvency of the active substance: Excellent
[2]; in 1-Vinyl-2-Pyrrolidone
  Residual Rate (% by weight) Immediately after Preparation: 100 % by weight
  Residual Rate (% by weight) after 7 Days: 100 % by weight
[2]; in 2-Ethylhexyl Acrylate
  Residual Rate (% by weight) Immediately after Preparation: 39 % by weight
  Residual Rate (% by weight) after 7 Days: 11 % by weight
[2]; in 2-Ethylhexyl Methacrylate
  Residual Rate (% by weight) Immediately after Preparation: 99 % by weight
  Residual Rate (% by weight) after 7 Days: 99 % by weight
[2]; in Acrylic Acid
  Residual Rate (% by weight) Immediately after Preparation: 99 % by weight
  Residual Rate (% by weight) after 7 Days: 97 % by weight
[2]; in Butyl Acrylate
  Residual Rate (% by weight) Immediately after Preparation: 27 % by weight
[2]; in Butyl Methacrylate
  Residual Rate (% by weight) Immediately after Preparation: 98 % by weight
  Residual Rate (% by weight) after 7 Days: 98 % by weight
[2]; in Dodecyl Methacrylate
  Residual Rate (% by weight) Immediately after Preparation: 100 % by weight
  Residual Rate (% by weight) after 7 Days: 99 % by weight
[3]; 50 parts DMAE in 950 parts Butylene Glycol
  Solvency of DMAE: Poor
[3]; 50 parts DMAE in 950 parts Diethyl Sebacate
  Solvency of DMAE: Excellent
[3]; 50 parts DMAE in 950 parts Hexyldecanol
  Solvency of DMAE: Excellent
[3]; 50 parts DMAE in 950 parts Isostearic Acid
  Solvency of DMAE: Poor
[3]; 50 parts DMAE in 950 parts Isostearyl Alcohol
  Solvency of DMAE: Excellent
[3]; 50 parts DMAE in 950 parts Lauryl Alcohol
  Solvency of DMAE: Excellent
[3]; 50 parts DMAE in 950 parts Liquid Paraffin
  Solvency of DMAE: Excellent
[3]; 50 parts DMAE in 950 parts Medium-chain Triglyceride
  Solvency of DMAE: Excellent
[3]; 50 parts DMAE in 950 parts Monoethanolamine
  Solvency of DMAE: Poor
[3]; 50 parts DMAE in 950 parts Octanediol
  Solvency of DMAE: Poor
[3]; 50 parts DMAE in 950 parts Octyldodecanol
  Solvency of DMAE: Excellent
[3]; 50 parts DMAE in 950 parts Oleic Acid
  Solvency of DMAE: Excellent
[3]; 50 parts DMAE in 950 parts Oleyl Alcohol
  Solvency of DMAE: Excellent
[3]; 50 parts DMAE in 950 parts Polyoxyethylene (2) Lauryl Ether
  Solvency of DMAE: Excellent
[3]; 50 parts DMAE in 950 parts Propylene Glycol
  Solvency of DMAE: Poor
[3]; 50 parts DMAE in 950 parts Squalane
  Solvency of DMAE: Excellent
[3]; 50 parts DMAE in 950 parts Triacetin
  Solvency of DMAE: Poor
[4]; g DMAE per 100 g Diethyl Sebacate at 25° C.
  Solubility of DMAE: 0.87 g
[4]; g DMAE per 100 g Hexyldecanol at 25° C.
  Solubility of DMAE: 1.4 g
[4]; g DMAE per 100 g Isostearyl Alcohol at 25° C.
  Solubility of DMAE: 1.8 g
[4]; g DMAE per 100 g Lauryl Alcohol at 25° C.
  Solubility of DMAE: 2.6 g
[4]; g DMAE per 100 g Liquid Paraffin at 25° C.
  Solubility of DMAE: 0.02 g
[4]; g DMAE per 100 g Medium-chain Triglyceride at 25° C.
  Solubility of DMAE: 0.31 g
[4]; g DMAE per 100 g Octyldodecanol at 25° C.
  Solubility of DMAE: 0.84 g
[4]; g DMAE per 100 g Oleic Acid at 25° C.
  Solubility of DMAE: 3.7 g
[4]; g DMAE per 100 g Oleyl Alcohol at 25° C.
  Solubility of DMAE: 2.5 g
[4]; g DMAE per 100 g Polyoxyethylene (2) Lauryl Ether at 25° C.
  Solubility of DMAE: 3.7 g
[4]; g DMAE per 100 g Squalane at 25° C.
  Solubility of DMAE: 0.01 g

## COc1ccc2c(c1)c(CC(=O)O)c(C)n2C(=O)c1ccc(Cl)cc1 [IMT, indomethacin]
[1]; [5]
  Solvency of the active substance: Excellent
[1]; [6]
  Solvency of the active substance: Poor
[1]; [7]
  Solvency of the active substance: Poor
[1]; [8]
  Solvency of the active substance: Excellent
[1]; [9]
  Solvency of the active substance: Poor
[1]; [10]
  Solvency of the active substance: Poor
[1]; [11]
  Solvency of the active substance: Poor
[1]; [12]
  Solvency of the active substance: Poor
[2]; in 1-Vinyl-2-Pyrrolidone
  Residual Rate (% by weight) Immediately after Preparation: 100 % by weight
  Residual Rate (% by weight) after 7 Days: 100 % by weight
[2]; in 2-Ethylhexyl Acrylate
  Residual Rate (% by weight) Immediately after Preparation: 100 % by weight
  Residual Rate (% by weight) after 7 Days: 100 % by weight
[2]; in 2-Ethylhexyl Methacrylate
  Residual Rate (% by weight) Immediately after Preparation: 100 % by weight
  Residual Rate (% by weight) after 7 Days: 100 % by weight
[2]; in Acrylic Acid
  Residual Rate (% by weight) Immediately after Preparation: 100 % by weight
  Residual Rate (% by weight) after 7 Days: 100 % by weight
[2]; in Butyl Acrylate
  Residual Rate (% by weight) Immediately after Preparation: 100 % by weight
[2]; [13]
  Residual Rate (% by weight) after 7 Days: 100 % by weight
[2]; in Butyl Methacrylate
  Residual Rate (% by weight) Immediately after Preparation: 100 % by weight
  Residual Rate (% by weight) after 7 Days: 99 % by weight
[2]; in Dodecyl Methacrylate
  Residual Rate (% by weight) Immediately after Preparation: 100 % by weight
  Residual Rate (% by weight) after 7 Days: 100 % by weight
[2]; in Ethyl Acrylate
  Residual Rate (% by weight) after 7 Days: 99 % by weight
[2]; [14]
  Residual Rate (% by weight) Immediately after Preparation: 100 % by weight

## O=[N+]([O-])O[C@H]1CO[C@H]2[C@@H]1OC[C@H]2O[N+](=O)[O-] [ISDN, isosorbide dinitrate]
[1]; [5]
  Solvency of the active substance: Excellent
[1]; [6]
  Solvency of the active substance: Excellent
[1]; [7]
  Solvency of the active substance: Excellent
[1]; [8]
  Solvency of the active substance: Excellent
[1]; [9]
  Solvency of the active substance: Excellent
[1]; [10]
  Solvency of the active substance: Excellent
[1]; [11]
  Solvency of the active substance: Excellent
[1]; [12]
  Solvency of the active substance: Excellent
[2]; in 1-Vinyl-2-Pyrrolidone
  Residual Rate (% by weight) Immediately after Preparation: 100 % by weight
  Residual Rate (% by weight) after 7 Days: 100 % by weight
[2]; in 2-Ethylhexyl Acrylate
  Residual Rate (% by weight) Immediately after Preparation: 100 % by weight
  Residual Rate (% by weight) after 7 Days: 100 % by weight
[2]; in 2-Ethylhexyl Methacrylate
  Residual Rate (% by weight) Immediately after Preparation: 100 % by weight
  Residual Rate (% by weight) after 7 Days: 99 % by weight
[2]; in Acrylic Acid
  Residual Rate (% by weight) Immediately after Preparation: 100 % by weight
  Residual Rate (% by weight) after 7 Days: 100 % by weight
[2]; in Butyl Acrylate
  Residual Rate (% by weight) Immediately after Preparation: 100 % by weight
[2]; [13]
  Residual Rate (% by weight) after 7 Days: 100 % by weight
[2]; in Butyl Methacrylate
  Residual Rate (% by weight) Immediately after Preparation: 100 % by weight
  Residual Rate (% by weight) after 7 Days: 100 % by weight
[2]; in Dodecyl Methacrylate
  Residual Rate (% by weight) Immediately after Preparation: 100 % by weight
  Residual Rate (% by weight) after 7 Days: 100 % by weight
[2]; in Ethyl Acrylate
  Residual Rate (% by weight) after 7 Days: 100 % by weight
[2]; [14]
  Residual Rate (% by weight) Immediately after Preparation: 100 % by weight

## CC(C)(C)NCC(O)c1ccccc1Cl (stereo not shown) [TB, tulobuterol]
[1]; [5]
  Solvency of the active substance: Excellent
[1]; [6]
  Solvency of the active substance: Excellent
[1]; [7]
  Solvency of the active substance: Excellent
[1]; [8]
  Solvency of the active substance: Excellent
[1]; [9]
  Solvency of the active substance: Excellent
[1]; [10]
  Solvency of the active substance: Excellent
[1]; [11]
  Solvency of the active substance: Good
[1]; [12]
  Solvency of the active substance: Excellent
[2]; in 1-Vinyl-2-Pyrrolidone
  Residual Rate (% by weight) Immediately after Preparation: 100 % by weight
  Residual Rate (% by weight) after 7 Days: 100 % by weight
[2]; in 2-Ethylhexyl Acrylate
  Residual Rate (% by weight) Immediately after Preparation: 100 % by weight
  Residual Rate (% by weight) after 7 Days: 88 % by weight
[2]; in 2-Ethylhexyl Methacrylate
  Residual Rate (% by weight) Immediately after Preparation: 100 % by weight
  Residual Rate (% by weight) after 7 Days: 100 % by weight
[2]; in Acrylic Acid
  Residual Rate (% by weight) Immediately after Preparation: 100 % by weight
  Residual Rate (% by weight) after 7 Days: 96 % by weight
[2]; in Butyl Acrylate
  Residual Rate (% by weight) Immediately after Preparation: 100 % by weight
[2]; [13]
  Residual Rate (% by weight) after 7 Days: 81 % by weight
[2]; in Butyl Methacrylate
  Residual Rate (% by weight) Immediately after Preparation: 100 % by weight
  Residual Rate (% by weight) after 7 Days: 100 % by weight
[2]; in Dodecyl Methacrylate
  Residual Rate (% by weight) Immediately after Preparation: 100 % by weight
  Residual Rate (% by weight) after 7 Days: 100 % by weight
[2]; in Ethyl Acrylate
  Residual Rate (% by weight) after 7 Days: 70 % by weight
[2]; [14]
  Residual Rate (% by weight) Immediately after Preparation: 100 % by weight
